Assay results taken from patent US12558356B2, “Immunophilin binding agents and uses thereof” (The Regents of the University of California, priority 2019, dated 2026).
Where two headings read alike, the source gives them in different places.

Experiments:
p-S6 level in MCF7 cells = experiment: Western blot of p-S6 level in MCF7 cells after combination treatment with Rapa/Rapalink and candidate compound (blockade score); type: cell-based; settings: 24 h, p-S6 level as fraction of DMSO control; for Rapamycin Blockade: 10 nM Rapa + 10 μM candidate compound; for RapaLink-1 Blockade: 10 nM Rapalink + 10 μM candidate compound
FKBP12 = FKBP12 (Homo sapiens (Human), UniProt P62942); experiment: FKBP12 binding assay (fluorescence polarization)
Chain of FKBP12 (P62942 whole entry): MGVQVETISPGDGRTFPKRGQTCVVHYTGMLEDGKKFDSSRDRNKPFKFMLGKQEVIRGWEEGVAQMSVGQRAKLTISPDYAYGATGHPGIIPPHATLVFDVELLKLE

Compound	Kd (FKBP12; read-out: Kd FKBP12) [nM]	Rapamycin Blockade (p-S6 level in MCF7 cells)	RapaLink-1 Blockade (p-S6 level in MCF7 cells)	Kd (FKBP12) [nM]
CCC(C)(C)C(=O)C(=O)N1CCCC[C@H]1C(=O)O[C@H](CCc1ccc(OC)c(OC)c1)c1cccc(N)c1 [SLF, reference compound]	–	3 (>70%)	0 (<20%)	–
CCC(C)(C)C(=O)C(=O)N1CCCC[C@H]1C(=O)O[C@H](CCc1ccc(OC)c(OC)c1)c1cccc(NC(=O)C[N+](C)(C)C)c1 [ZZY01-025]	95	1 (20-40%)	–	–
CCC(C)(C)C(=O)C(=O)N1CCCC[C@H]1C(=O)O[C@H](CCc1ccc(OC)c(OC)c1)c1cccc(OCCN)c1 [ZZY01-038]	9.4	1 (20-40%)	–	–
CCC(C)(C)C(=O)C(=O)N1CCCC[C@H]1C(=O)O[C@H](CCc1ccc(OC)c(OC)c1)c1cccc(NC(=O)CN)c1 [ZZY01-040]	21.3	3 (>70%)	–	–
CCC(C)(C)C(=O)C(=O)N1CCCC[C@H]1C(=O)O[C@H](CCc1ccc(OC)c(OC)c1)c1cccc(OCC(=O)O)c1 [ZZY01-041]	38	0 (<20%)	–	–
CCC(C)(C)C(=O)C(=O)N1CCCC[C@H]1C(=O)O[C@H](CCc1ccc(OC)c(OC)c1)c1cccc(NC(=O)CN2CCOCC2)c1 [ZZY01-043]	15	3 (>70%)	–	–
CCC(C)(C)C(=O)C(=O)N1CCCC[C@H]1C(=O)O[C@H](CCc1ccc(OC)c(OC)c1)c1cccc(NC(=O)CN(C)C)c1 [ZZY01-044]	12.7	3 (>70%)	–	–
CCC(C)(C)C(=O)C(=O)N1CCCC[C@H]1C(=O)O[C@H](CCc1ccc(OC)c(OC)c1)c1cccc(NC(=O)[C@H](C)N)c1 [ZZY01-059]	–	3 (>70%)	–	–
CCC(C)(C)C(=O)C(=O)N1CCCC[C@H]1C(=O)O[C@H](CCc1ccc(OC)c(OC)c1)c1cccc(NCC(=O)O)c1 [ZZY01-060A]	–	0 (<20%)	–	–
CCC(C)(C)C(=O)C(=O)N1CCCC[C@H]1C(=O)O[C@H](CCc1ccc(OC)c(OC)c1)c1cccc(N(CC(=O)O)CC(=O)O)c1 [ZZY01-060B]	75	1 (20-40%)	–	–
CCC(C)(C)C(=O)C(=O)N1CCCC[C@H]1C(=O)O[C@H](CCc1ccc(OC)c(OC)c1)c1cccc(NC(=O)CNC(=N)N)c1 [ZZY01-065]	37.8	2 (40%-70%)	–	–
CCC(C)(C)C(=O)C(=O)N1CCCC[C@H]1C(=O)O[C@H](CCc1ccc(OC)c(OC)c1)c1cccc(NC(=O)CNN)c1 [ZZY01-070]	21	1 (20-40%)	–	–
CCC(C)(C)C(=O)C(=O)N1CCCC[C@H]1C(=O)O[C@H](CCc1ccc(OC)c(OC)c1)c1cccc(NC(=O)CN2CCN(C)CC2)c1 [ZZY01-072]	12.5	3 (>70%)	–	–
CCC(C)(C)C(=O)C(=O)N1CCCC[C@H]1C(=O)O[C@H](CCc1ccc(OC)c(OC)c1)c1cccc(NC(=O)CCC(=O)O)c1 [ZZY01-083]	–	1 (20-40%)	–	–
C=CC(=O)Nc1cccc([C@@H](CCc2ccc(OC)c(OC)c2)OC(=O)[C@@H]2CCCCN2C(=O)C(=O)C(C)(C)CC)c1 [ZZY02-014]	64	3 (>70%)	–	–
CCC(C)(C)C(=O)C(=O)N1CCCC[C@H]1C(=O)O[C@H](CCc1ccc(OC)c(OC)c1)c1cccc(NCCN)c1 [ZZY02-032]	36.4	0 (<20%)	–	–
CCC(C)(C)C(=O)C(=O)N1CCCC[C@H]1C(=O)O[C@H](CCc1ccc(OC)c(OC)c1)c1cccc(NC(=O)CCl)c1 [ZZY02-033]	–	0 (<20%)	–	–
CO[C@H]1C/C(C)=C/[C@@H](CCCSCCN)C(=O)C[C@H](O)[C@@H](C)[C@@H](/C(C)=C/[C@@H]2CC[C@@H](O)[C@H](OC)C2)OC(=O)[C@@H]2CCCCN2C(=O)C(=O)[C@]2(O)O[C@H]([C@@H](OC)C1)[C@@H](OC)C[C@H]2C [ZZY05-011]	–	3 (>70%)	3 (>70%)	0.69
CO[C@H]1C/C(C)=C/[C@@H](C/C=C/C(=O)O)C(=O)C[C@H](O)[C@@H](C)[C@@H](/C(C)=C/[C@@H]2CC[C@@H](O)[C@H](OC)C2)OC(=O)[C@@H]2CCCCN2C(=O)C(=O)[C@]2(O)O[C@H]([C@@H](OC)C1)[C@@H](OC)C[C@H]2C [ZZY05-012]	–	0 (<20%)	0 (<20%)	0.39
CO[C@H]1C/C(C)=C/[C@@H](CCCSCCN(C)C)C(=O)C[C@H](O)[C@@H](C)[C@@H](/C(C)=C/[C@@H]2CC[C@@H](O)[C@H](OC)C2)OC(=O)[C@@H]2CCCCN2C(=O)C(=O)[C@]2(O)O[C@H]([C@@H](OC)C1)[C@@H](OC)C[C@H]2C [ZZY05-013]	–	3 (>70%)	3 (>70%)	1.36
CO[C@H]1C/C(C)=C/[C@@H](CCCSC[C@H](N)C(=O)O)C(=O)C[C@H](O)[C@@H](C)[C@@H](/C(C)=C/[C@@H]2CC[C@@H](O)[C@H](OC)C2)OC(=O)[C@@H]2CCCCN2C(=O)C(=O)[C@]2(O)O[C@H]([C@@H](OC)C1)[C@@H](OC)C[C@H]2C [ZZY05-037]	–	–	1 (20-40%)	8.7
CO[C@H]1C/C(C)=C/[C@@H](C/C=C/c2ccncc2)C(=O)C[C@H](O)[C@@H](C)[C@@H](/C(C)=C/[C@@H]2CC[C@@H](O)[C@H](OC)C2)OC(=O)[C@@H]2CCCCN2C(=O)C(=O)[C@]2(O)O[C@H]([C@@H](OC)C1)[C@@H](OC)C[C@H]2C [ZZY05-050]	–	–	3 (>70%)	3.6
CO[C@H]1C/C(C)=C/[C@@H](CCCc2cc[n+]([O-])cc2)C(=O)C[C@H](O)[C@@H](C)[C@@H](/C(C)=C/[C@@H]2CC[C@@H](O)[C@H](OC)C2)OC(=O)[C@@H]2CCCCN2C(=O)C(=O)[C@]2(O)O[C@H]([C@@H](OC)C1)[C@@H](OC)C[C@H]2C [ZZY05-086]	–	–	3 (>70%)	1.6
tacrolimus [FK506, reference compound]	–	3 (>70%)	3 (>70%)	–

Second part, led by results:

Kd (FKBP12; read-out: Kd FKBP12) [nM]	Compound	Rapamycin Blockade (p-S6 level in MCF7 cells)	RapaLink-1 Blockade (p-S6 level in MCF7 cells)	Kd (FKBP12) [nM]
63.8	CCC(C)(C)C(=O)C(=O)N1CCCC[C@H]1C(=O)O[C@H](CCc1ccc(OC)c(OC)c1)c1cccc(NC(=O)CS)c1 [ZZY02-055]	0 (<20%)	–	–
6	CCC(C)(C)C(=O)C(=O)N1CCCC[C@H]1C(=O)O[C@H](CCc1ccc(OC)c(OC)c1)c1cccc(NC(=O)CN=[N+]=[N-])c1 [ZZY02-096]	2 (40%-70%)	–	–
43.7	CCC(C)(C)C(=O)C(=O)N1CCCC[C@H]1C(=O)O[C@H](CCc1ccc(OC)c(OC)c1)c1cccc(NC(=O)CCOCCOCCN)c1 [ZZY03-077]	3 (>70%)	–	–
31.1	CCC(C)(C)C(=O)C(=O)N1CCCC[C@H]1C(=O)O[C@H](CCc1ccc(OC)c(OC)c1)c1cccc(NC(=O)Cc2ccccn2)c1 [ZZY03-083]	3 (>70%)	0 (<20%)	–
18.6	CCC(C)(C)C(=O)C(=O)N1CCCC[C@H]1C(=O)O[C@H](CCc1ccc(OC)c(OC)c1)c1cccc(NC(=O)CCOCCN)c1 [ZZY03-084]	2 (40%-70%)	–	–
37.3	CCC(C)(C)C(=O)C(=O)N1CCCC[C@H]1C(=O)O[C@H](CCc1ccc(OC)c(OC)c1)c1cccc(NC(=O)CNc2ccccn2)c1 [ZZY03-091]	2 (40%-70%)	–	–
1.49	CO[C@H]1C/C(C)=C/[C@@H](CCCC(=O)O)C(=O)C[C@H](O)[C@@H](C)[C@@H](/C(C)=C/[C@@H]2CC[C@@H](O)[C@H](OC)C2)OC(=O)[C@@H]2CCCCN2C(=O)C(=O)[C@]2(O)O[C@H]([C@@H](OC)C1)[C@@H](OC)C[C@H]2C [ZZY05-020]	2 (40%-70%)	0 (<20%)	–
0.62	CO[C@H]1C/C(C)=C/[C@@H](C/C=C/c2cccc[n+]2[O-])C(=O)C[C@H](O)[C@@H](C)[C@@H](/C(C)=C/[C@@H]2CC[C@@H](O)[C@H](OC)C2)OC(=O)[C@@H]2CCCCN2C(=O)C(=O)[C@]2(O)O[C@H]([C@@H](OC)C1)[C@@H](OC)C[C@H]2C [ZZY05-060]	–	1 (20-40%)	–
0.21	CO[C@H]1C/C(C)=C/[C@@H](C/C=C/c2cc[n+]([O-])cc2)C(=O)C[C@H](O)[C@@H](C)[C@@H](/C(C)=C/[C@@H]2CC[C@@H](O)[C@H](OC)C2)OC(=O)[C@@H]2CCCCN2C(=O)C(=O)[C@]2(O)O[C@H]([C@@H](OC)C1)[C@@H](OC)C[C@H]2C [ZZY05-061]	–	0 (<20%)	–
0.2	CO[C@H]1C/C(C)=C/[C@@H](CCCC(=O)Nc2ccccn2)C(=O)C[C@H](O)[C@@H](C)[C@@H](/C(C)=C/[C@@H]2CC[C@@H](O)[C@H](OC)C2)OC(=O)[C@@H]2CCCCN2C(=O)C(=O)[C@]2(O)O[C@H]([C@@H](OC)C1)[C@@H](OC)C[C@H]2C [ZZY05-064]	–	3 (>70%)	–
